Experimental data taken from patent US8563472B2 (priority 2010, dated 2013).

Tests used:
Phytophthora infestans = assay type: in vivo; details: hydrazone 50 ppm with 50 μM CuCl2.2H2O, applied 24 h before inoculation, tomato plants, assessed 7 d after inoculation
[1] = test system: Leptosphaeria nodorum (LEPTNO); assay: In vitro fungitoxicity assay against Leptosphaeria nodorum in copper-minus / copper-plus liquid medium; assay type: cell-based; details: test compound 0.05 μg/mL, 25° C., 72 h; for inhibition of growth at 0.05 µg/mL: Parastagonospora nodorum, copper-minus medium, growth by light scattering, read-out: LEPTNO % Inhn. Minus Copper Observed; for LEPTNO % Inhn. Plus Copper Observed: copper-plus medium (CuCl2.2H2O)
Experimental: In vitro fungitoxicity assays against Leptosphaeria nodorum (LEPTNO) were conducted using the liquid growth medium described by Coursen and Sisler (American Journal of Botany 1960, 47, 541-549) except that copper micronutrient, normally included as CuSO4, was omitted. The medium, termed “copper-minus”, was prepared by dissolving 10 g glucose, 1.5 g K2HPO4, 2 g KH2PO4 and 1 g (NH4)2SO4 in 1 liter of deionized water and treating the solution with 0.5 g Chelex 100 resin (Bio-Rad Analytical grade, 50-100 mesh, sodium form, cat#142-2822) by stirring at room temperature for 1 h. MgSO4.7H2O (0.5 g) was added, and stirring was continued for a further hour. Trace elements (minus CuSO4), and vitamins described by Coursen and Sisler were added from concentrated stock solutions and the entire medium was sterilized by filtration. Medium containing copper was prepared by adding CuCl2.2H2O to the copper-minus medium at 20 μM. […] Copper-minus medium (100 μL) was added to one of the wells and copper-plus medium to the second well. Control wells, included for each medium, received 1 μL DMSO and 100 μL of medium.
LEPTNO was grown on potato dextrose agar in 9 cm diameter petri dishes for 7 days (d). Sterile deionized water (20 mL) was added to a culture plate and spores suspended by scraping the surface gently with a sterile plastic loop. The resulting suspension was filtered through a double layer of sterile cheesecloth. […] The spores were resuspended in copper-minus medium, and the suspension adjusted to 2×10^5 spores per mL. Microtiter plates were inoculated with 100 μL of this spore suspension and the plates incubated at 25° C. for 72 h before assessing fungal growth by measuring light scattering in a NepheloStar plate reader. Growth inhibition was determined by comparing growth in the presence of test compound with growth in control wells lacking test compound.

`C/C(=N\NC(=O)c1sc(C)nc1C)c1ccccc1O` [Compound 37] showed a melting point of 202 to 204 °C, a TLB % control (Phytophthora infestans) of 81% and an inhibition of growth at 0.05 µg/mL [1] of 0%. For the same compound, the “LEPTNO % Inhn. Plus Copper Observed” value [1] was 94.2%.

`O=C(N/N=C/c1cc(Br)cc(Br)c1O)c1ccc(Cl)s1` [Compound 31] gave a melting point of 247 to 248 °C, a TLB % control (Phytophthora infestans) of 88% and an inhibition of growth at 0.05 µg/mL [1] of 4.9%. For the same compound, the “LEPTNO % Inhn. Plus Copper Observed” value [1] was 97.8%.

Compound `Cn1cc(C(=O)N/N=C/c2cc(Cl)cc(Cl)c2O)c2ccccc21` [Compound 15] has a melting point of 215 to 217 °C, a TLB % control (Phytophthora infestans) of 12% and an inhibition of growth at 0.05 µg/mL [1] of 16.3%. For the same compound, the “LEPTNO % Inhn. Plus Copper Observed” value [1] was 98.1%.

`C/C(=N\NC(=O)c1ccc(Cl)s1)c1cc(Br)cc(Br)c1O` [Compound 50] gave a melting point of 253 to 255 °C, a TLB % control (Phytophthora infestans) of 85% and an inhibition of growth at 0.05 µg/mL [1] of 0%. The “LEPTNO % Inhn. Plus Copper Observed” value [1] was 97.5%.

With `C/C(=N\NC(=O)c1ccoc1C)c1cc(Cl)cc(Cl)c1O` [Compound 46] the melting point was 212 to 215 °C, the TLB % control (Phytophthora infestans) was 69% and the inhibition of growth at 0.05 µg/mL [1] was 0%. For the same compound, the “LEPTNO % Inhn. Plus Copper Observed” value [1] was 97.2%.

Work on `C/C(=N\NC(=O)c1ccc(Cl)s1)c1cc(Cl)cc(Cl)c1O` [Compound 44] yielded a melting point of 221 to 224 °C, a TLB % control (Phytophthora infestans) of 68% and an inhibition of growth at 0.05 µg/mL [1] of 2%. For the same compound, the “LEPTNO % Inhn. Plus Copper Observed” value [1] was 96.9%.

For `C/C(=N\NC(=O)c1sc(C)nc1C)c1cc(Cl)cc(Cl)c1O` [Compound 43], the melting point was 208 to 209 °C, the TLB % control (Phytophthora infestans) was 66% and the inhibition of growth at 0.05 µg/mL [1] was 0%. For the same compound, the “LEPTNO % Inhn. Plus Copper Observed” value [1] was 94.3%.

`C/C(=N\NC(=O)c1ccsc1)c1cc(Cl)cc(Cl)c1O` [Compound 47] showed a melting point of 230 to 232 °C, a TLB % control (Phytophthora infestans) of 81% and an inhibition of growth at 0.05 µg/mL [1] of 0%. The “LEPTNO % Inhn. Plus Copper Observed” value [1] was 98.1%.

`O=C(N/N=C/c1ccccc1O)c1cc2ccccc2s1` [Compound 20] showed a melting point of 220 to 221 °C, a TLB % control (Phytophthora infestans) of 18% and an inhibition of growth at 0.05 µg/mL [1] of 4.2%. For the same compound, the “LEPTNO % Inhn. Plus Copper Observed” value [1] was 95.4%.

`Cc1cc(C(=O)N/N=C/c2ccccc2O)c2cc(Br)ccc2n1` [Compound 3] showed a melting point of 270 to 275 °C, a TLB % control (Phytophthora infestans) of 25% and an inhibition of growth at 0.05 µg/mL [1] of 0%. The “LEPTNO % Inhn. Plus Copper Observed” value [1] was 72.9%.

With `O=C(N/N=C/c1cc(Br)cc(Br)c1O)c1ccsc1` [Compound 34] the melting point was 236 to 237 °C, the TLB % control (Phytophthora infestans) was 80% and the inhibition of growth at 0.05 µg/mL [1] was 0%. For the same compound, the “LEPTNO % Inhn. Plus Copper Observed” value [1] was 97.9%.

Compound `O=C(N/N=C/c1cc(Br)cc(Br)c1O)c1cnn(-c2ccc(Cl)cc2)c1C(F)(F)F` [Compound 29] has a melting point of 237 to 238 °C, a TLB % control (Phytophthora infestans) of 47% and an inhibition of growth at 0.05 µg/mL [1] of 7.8%. For the same compound, the “LEPTNO % Inhn. Plus Copper Observed” value [1] was 57.6%.

With `C/C(=N\NC(=O)c1csc(C)c1)c1cc(Br)cc(Br)c1O` [Compound 51] the melting point was 237 to 239 °C, the TLB % control (Phytophthora infestans) was 88% and the inhibition of growth at 0.05 µg/mL [1] was 2.2%. The “LEPTNO % Inhn. Plus Copper Observed” value [1] was 98%.

Compound `C/C(=N\NC(=O)c1sc(C)nc1C)c1cc(Br)cc(Br)c1O` [Compound 49] has a melting point of 221 to 223 °C, a TLB % control (Phytophthora infestans) of 61% and an inhibition of growth at 0.05 µg/mL [1] of 2.6%. For the same compound, the “LEPTNO % Inhn. Plus Copper Observed” value [1] was 89.1%.

For `Cc1nc(C)c(C(=O)N/N=C/c2cc(Cl)cc(Cl)c2O)s1` [Compound 25], the melting point was 217 to 219 °C, the TLB % control (Phytophthora infestans) was 71% and the inhibition of growth at 0.05 µg/mL [1] was 0%. For the same compound, the “LEPTNO % Inhn. Plus Copper Observed” value [1] was 81.9%.
